Assays:
[1] = molecular target: T1, proton potassium-adenosine triphosphatase (H+·K+-ATPase) (Sus scrofa, UniProt P19156); assay: Test on activity of proton potassium-adenosine triphosphatase (H+·K+-ATPase); assay type: biochemical; conditions: microsomal fraction of swine gastric mucosal layer, pH 6.85, 37° C.; read-out: 50% inhibitory concentration (IC50) against proton-potassium-adenosine triphosphatase
T1 construct: A microsomal fraction prepared in accordance with the method of Sachs, et al; from tissue; host or cells: swine gastric mucosa, microsomal fraction (density gradient ultracentrifugation)
T1 sequence (P19156 2-1034 limits assumed): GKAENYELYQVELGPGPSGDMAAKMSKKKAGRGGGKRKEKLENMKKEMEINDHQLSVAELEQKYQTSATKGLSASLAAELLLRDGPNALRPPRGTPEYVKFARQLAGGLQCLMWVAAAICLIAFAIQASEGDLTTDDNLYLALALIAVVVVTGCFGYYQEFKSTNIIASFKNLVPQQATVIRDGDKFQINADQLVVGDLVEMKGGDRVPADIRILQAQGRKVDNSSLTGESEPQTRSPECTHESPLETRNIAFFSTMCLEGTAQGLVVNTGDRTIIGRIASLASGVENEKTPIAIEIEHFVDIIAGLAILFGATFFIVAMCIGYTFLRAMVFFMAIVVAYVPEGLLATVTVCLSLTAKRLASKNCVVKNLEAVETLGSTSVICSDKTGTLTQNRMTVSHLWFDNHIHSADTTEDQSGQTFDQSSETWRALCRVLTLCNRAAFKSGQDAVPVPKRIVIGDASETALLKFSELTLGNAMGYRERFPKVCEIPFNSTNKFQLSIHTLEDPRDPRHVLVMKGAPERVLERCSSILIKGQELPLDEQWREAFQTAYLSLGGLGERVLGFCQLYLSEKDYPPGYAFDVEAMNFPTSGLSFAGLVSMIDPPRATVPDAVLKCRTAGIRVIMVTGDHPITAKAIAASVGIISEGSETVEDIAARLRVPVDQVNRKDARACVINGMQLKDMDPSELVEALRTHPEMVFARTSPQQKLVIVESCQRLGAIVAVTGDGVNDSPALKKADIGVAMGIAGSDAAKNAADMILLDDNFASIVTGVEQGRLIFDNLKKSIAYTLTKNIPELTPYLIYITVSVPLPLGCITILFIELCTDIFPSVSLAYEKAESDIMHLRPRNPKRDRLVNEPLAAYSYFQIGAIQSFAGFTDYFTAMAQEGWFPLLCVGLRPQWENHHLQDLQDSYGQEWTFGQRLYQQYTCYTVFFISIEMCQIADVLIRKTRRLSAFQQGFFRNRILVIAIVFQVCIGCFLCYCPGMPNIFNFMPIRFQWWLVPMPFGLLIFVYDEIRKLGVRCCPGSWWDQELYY
T1 sequence (P18434 whole entry partner): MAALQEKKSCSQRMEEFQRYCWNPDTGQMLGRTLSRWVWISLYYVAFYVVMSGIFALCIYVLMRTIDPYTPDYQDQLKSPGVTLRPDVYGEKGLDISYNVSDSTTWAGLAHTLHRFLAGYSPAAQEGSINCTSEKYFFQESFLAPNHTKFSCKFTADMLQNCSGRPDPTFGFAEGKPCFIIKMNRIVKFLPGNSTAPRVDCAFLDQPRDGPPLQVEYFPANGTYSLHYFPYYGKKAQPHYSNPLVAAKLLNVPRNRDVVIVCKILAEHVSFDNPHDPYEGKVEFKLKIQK
Method: Test on Activity of Proton Potassium-adenosine Triphosphatase (H^+·K^+-ATPase) A microsomal fraction prepared in accordance with the method of Sachs, et al. [J. Bio., Chem., 251, 7690 (1976)] by homogenizing a fresh gastric mucosal layer of swine and then subjecting the homogenate to density gradient ultra centrifugation was employed as a proton potassium-adenosine triphosphatase preparation. A solution (10 μl) of a test compound dissolved in dimethyl sulfoxide was added to 0.75 ml of a 70 mM tris-hydrochloric acid buffer (5 mM magnesium chloride, 20 mM potassium chloride, pH=6.85) containing 30 to 80 μg/ml, in terms of a protein concentration, of an enzyme preparation. The mixture was incubated with 200 times/min of agitation at 37° C. for 45 minutes. The enzymatic reaction was started by adding 0.25 ml of a 8 mM solution of disodium adenosine triphosphate. After this enzymatic reaction was continued for 20 minutes, 1 ml of a 10% trichloroacetic acid-activated charcoal (100 mg) solution was added to terminate the reaction. The reaction mixture was centrifuged (at 4° C. and 3000 rpm) for 15 minutes. […] The amount of inorganic phosphoric acid in a reaction mixture free from potassium chloride was also measured. By subtracting this amount from the amount of inorganic phosphoric acid in the presence of potassium chloride, proton potassium-adenosine triphosphatase activity was determined. […]

[2] = test system: Helicobacter pylori strains 9470, 9472 and 9474; assay: Antibacterial action against Helicobacter pylori (MIC, agar dilution); assay type: cell-based; conditions: 72 h, cultured at 37° C. for 3 days, microaerophilic conditions, read-out: MIC (Minimum Inhibitory Concentration) against Helicobacter pylori
Method: Antibacterial Action Against Helicobacter pylori The antibacterial activity of the invention compound was evaluated by using Helicobacter pylori strains 9470, 9472 and 9474 and determining MIC (Minimum Inhibitory Concentration) of the invention compound against Helicobacter pylori. Helicobacter pylori was cultured by plating for 4 days. A medium was prepared by dissolving Brain Heart Infusion Agar (product of Difco Laboratories) in a prescribed amount of distilled water, sterilizing in an autoclave, adding equine blood (product of Nippon Seibutsu Zairyo) to give its concentration of 7% and then solidifying the mixture. Under microaerophilic conditions, Helicobacter pylori which had been cultured at 37° C. for 4 days was suspended in physiological saline to give its viable count of about 10^8 CFU/ml. The suspension was then diluted to 100 times and a portion (about 10 μl) of the diluted suspension was inoculated in a medium for measuring MIC. The medium employed for measuring MIC has the same composition as the preculture medium. A compound of this invention was dissolved in dimethyl sulfoxide (DMSO) and two-fold serial dilutions were made with sterilized water. After mixing the solution and the medium in a ratio of 1:99, a solidified product in the Petri dish was employed as an MIC measuring medium. […]

gastric acid secretion = assay: Gastric acid secretion inhibition activity in pylorus-ligated rats; assay type: in vivo; conditions: for 50% inhibitory dose (ID50, mg/kg) against gastric acid secretion: pylorus-ligated rats, oral administration, four hours after administration
Excerpt: Gastric Acid Secretion Inhibition Activity After groups of rats, each group consisting of 3 to 5 rats, were fasted overnight, they were subjected to midline abdominal incision and their pylorus was ligated under anesthesia with ether. The stomach and duodenum were returned to their original positions in the body, followed by closing at the abdominal incision part. A predetermined amount of a test compound was suspended in an aqueous solution containing 0.5% of sodium carboxymethylcellulose and 0.4% of Tween 80 (Polysorbate 80). The resulting suspension was orally administered to the rats. As a control, an aqueous suspension (suspending solvent) containing 0.5% of sodium carboxymethylcellulose and 0.4% of Tween 80 (Polysorbate 80) was orally administered to other rats. Four hours after administration of the test compound or suspending solvent, the rats were sacrificed by inhalation of CO2 gas. They were subjected to abdominal incision to remove their stomach. The content of the stomach was collected in a glass-made graduated centrifuge tube. After centrifugation, the amount (ml) of the supernatant and the amount (ml) of the precipitate were measured. The precipitate of the amount exceeding 0.5 ml was regarded as coprophage and removed from the data. The supernatant (100 μl) was poured into a test tube. Distilled water (4 ml) was added to the solution, and the solution was titrated to pH 7.0 with 0.01 N sodium hydroxide. A standard acid concentration solution obtained by adding 4 ml of distilled water to 100 μl of 0.1 N hydrochloric acid was titrated in a similar manner. […]

Row | Compound | IC50 [1] [nM] | MIC [2] [µg/mL] | effects on gastric acid secretion relative to its racemate (times stronger) (gastric acid secretion; from ID50 values of Table 2, versus racemate (Compound A)) | 50% inhibitory dose (ID50, mg/kg) against gastric acid secretion (gastric acid secretion) [mg/kg]
1 | Cc1c(C)n(C[C@H]2C[C@@H]2C)c2c(OCc3ccc(F)cc3)nncc12 [Example 1, 7-(4-Fluorobenzyloxy)-2,3-dimethyl-1-[(1S,2S)-2-methylcyclopropylmethyl]pyrrolo[2,3-d]pyridazine] | ≤ 295 | ≤ 12.5 | about 3 times | 0.52
2 | Cc1c(C)n(CC2CC2C)c2c(OCc3ccc(F)cc3)nncc12 (racemic) [Compound A, 7-(4-Fluorobenzyloxy)-1-[(E)-2-methylcyclopropylmethyl]-2,3-dimethylpyrrolo[2,3-d]pyridazine (racemate), reference compound] |  |  |  | 1.64
